Experimental data from ChEMBL document CHEMBL3112462, “2-acylamino-5-nitro-1,3-thiazoles: preparation and in vitro bioevaluation against four neglected protozoan parasites” (Bioorg Med Chem, 2014).

Tests used:
[1] = test system: Leishmania amazonensis; assay: Antimicrobial activity against promastigote stage of Leishmania amazonensis IFLA/BR/67/PH-8 clinical isolate after 72 hrs by Neubauer chamber analysis; type: functional, organism-based; details: IFLA/BR/67/PH-8, 72 h
[2] = test system: Giardia intestinalis; assay: Antimicrobial activity against Giardia intestinalis IMSS:0696:1 incubated for 48 hrs followed by compound washout measured after 48 hrs; type: functional, organism-based; details: Giardia duodenalis, IMSS:0696:1, 48 h
[3] = test system: Giardia intestinalis; assay: Ratio of metronidazole IC50 to compound IC50 for Giardia intestinalis IMSS:0696:1; type: functional, Giardia duodenalis
[4] = test system: Trichomonas vaginalis; assay: Antimicrobial activity against Trichomonas vaginalis GT3 incubated for 48 hrs followed by compound washout measured after 48 hrs; type: functional, organism-based; details: GT3, 48 h
[5] = test system: Trypanosoma cruzi; assay: Antimicrobial activity against epimastigote stage of Trypanosoma cruzi MHOM/MX/1994/Ninoa clinical isolate after 72 hrs by Neubauer chamber analysis; type: functional, organism-based
[6] = Cytotoxicity against African green monkey Vero cells assessed as cell viability after 48 hrs by SRB assay; type: cell-based; details: chlorocebus sabaeus
[7] = test system: Trichomonas vaginalis; assay: Ratio of metronidazole IC50 to compound IC50 for Trichomonas vaginalis GT3; type: functional
[8] = Selectivity index, ratio of CC50 for African green monkey Vero cells to IC50 for Trichomonas vaginalis GT3; type: functional
[9] = Selectivity index, ratio of CC50 for African green monkey Vero cells to IC50 for Giardia intestinalis IMSS:0696:1; type: functional
[10] = test system: Leishmania amazonensis; assay: Ratio of pentamidine IC50 to compound IC50 for promastigote stage of Leishmania amazonensis IFLA/BR/67/PH-8 clinical isolate; type: functional
[11] = test system: Trypanosoma cruzi; assay: Ratio of benznidazole IC50 to compound IC50 for epimastigote stage of Trypanosoma cruzi MHOM/MX/1994/Ninoa clinical isolate; type: functional

IC50 [1] [µM]	IC50 ([2]; read-out: IC50) [nM]	IC50 ([2]; read-out: pIC50 (converted)) [nM]	IC50 ([4]; read-out: IC50) [nM]	IC50 ([4]; read-out: pIC50 (converted)) [nM]	IC50 [5] [µM]	Structure (SMILES)	Ratio IC50 [3]	CC50 at 48 h [6] [µM]	Ratio IC50 [7]	Ratio CC50/IC50 [8]	Ratio CC50/IC50 [9]	Ratio IC50 [10]	Ratio IC50 [11]
> 50	398	398	305	316	> 50	CCCCC(=O)Nc1ncc([N+](=O)[O-])s1	11	> 1000					
> 50	359	363	1650	2000	> 50	O=C(Nc1ncc([N+](=O)[O-])s1)NC1CCCCC1	11	> 1000					
37.2	577	589	1030	1260	> 50	O=C(Nc1ccc(Cl)cc1)Nc1ncc([N+](=O)[O-])s1	11	> 1000					
> 50	7830	7940	1230	1260	> 50	O=C(Nc1ccc(F)cc1)Nc1ncc([N+](=O)[O-])s1		> 1000					
32.2	29100	29500	1300	1580	> 50	COc1ccc(NC(=O)Nc2ncc([N+](=O)[O-])s2)cc1							
> 50	3750	3800	282	316	> 50	CCOc1ccc(NC(=O)Nc2ncc([N+](=O)[O-])s2)cc1		> 1000					
> 50						O=C(Cn1ccnc1[N+](=O)[O-])NCc1ccccc1 [BENZNIDAZOLE]		14					
> 50				316	> 50	Cc1ncc([N+](=O)[O-])n1CCO [METRONIDAZOLE]		387					
> 50	490	501	22	25.1	> 50	CC(=O)Nc1ncc([N+](=O)[O-])s1 [NITHIAMIDE]	11	> 1000	13				

Continued, compound first:

Structure (SMILES)	IC50 [1] [µM]	IC50 ([2]; read-out: IC50) [nM]	IC50 ([2]; read-out: pIC50 (converted)) [nM]	IC50 ([4]; read-out: IC50) [nM]	IC50 ([4]; read-out: pIC50 (converted)) [nM]	IC50 [5] [µM]	Ratio IC50 [3]	CC50 at 48 h [6] [µM]	Ratio IC50 [7]	Ratio CC50/IC50 [8]	Ratio CC50/IC50 [9]	Ratio IC50 [10]	Ratio IC50 [11]
O=C(Nc1ccccc1)Nc1ncc([N+](=O)[O-])s1	38.5	2570	2570			> 50		> 1000					
CCCCOc1ccc(NC(=O)Nc2ncc([N+](=O)[O-])s2)cc1	> 50	1800	1820	387	398	> 50		58					
O=C(Nc1ccc([N+](=O)[O-])cc1)Nc1ncc([N+](=O)[O-])s1	> 50	15300	15500	958	1000	> 50							
CCCCCCCCCCCCCCCC(=O)Nc1ncc([N+](=O)[O-])s1	> 50	1630	1660	2580	3160	> 50		> 1000					
COC(=O)Nc1ncc([N+](=O)[O-])s1	> 50	10	10	81	100	> 50	536	2460	4	30407	246300		
CCOC(=O)C(=O)Nc1ncc([N+](=O)[O-])s1	> 50	6410	6460	10	10	> 50		1420	29	141500	220		
Nc1ncc([N+](=O)[O-])s1	> 50	29600	27500	52800	63100	> 50		441					
CC(=O)Oc1ccccc1C(=O)Nc1ncc([N+](=O)[O-])s1 [NITAZOXANIDE]	7.23		1230		79.4			833				2	2
N=C(N)c1ccc(OCCCCCOc2ccc(C(=N)N)cc2)cc1 [PENTAMIDINE]	14.3					> 50		47					
